We go through three molecules from US20250360148A1, “SOLID DISPERSIONS OF PSILOCYBIN” (Cybin IRL Limited, priority 2022, published 2025).

Marks after values point to notes of the source that are not given here.

Series [1] can be described thus: XRPD characterization of freeze-dried solid dispersions, physical mixtures and starting material. It is filed as physicochemical. The conditions noted are these: as prepared; solid form of psilocybin (PY) in freeze-dried dispersion, physical mixture or starting material. The procedure: The samples were prepared in silicon low background holders using light manual pressure to keep the sample surface flat and level with the reference surface of the sample holder. The single crystal Si low background holder has a circular recess (10 mm diameter and about 0.2 mm depth) that holds the sample.
The Rigaku Smart-Lab diffraction system used was configured for Bragg-Brentano reflection geometry using a line source X-ray beam. The Bragg-Brentano geometry was controlled by passive divergence and receiving slits with the sample itself acting as the focusing component for the optics. The figures were created using PlotMon V2.1.1.0.
High-resolution XRPD analysis was performed using Rigaku Smart-Lab diffraction system configured for Debye-Scherrer transmission geometry. The Debye-Scherrer convergent beam geometry utilizes a curved x-ray mirror to focus the incident beam through the sample and onto the detector plane. The axial divergence of the X-ray beam was controlled by 5.0° Soller slits in both the incident and diffracted beam paths.
Freeze-dried solid dispersions of Examples 1-5, and corresponding Reference Examples, were characterized using X-ray powder diffraction (XRPD).

The nature of series [2]: Characterization and 40° C. closed-vial stability of spray dried solid dispersions (XRPD, mDSC, TGA). In kind it is physicochemical. The conditions noted are these: t = 0, spray dried. As to the method:
X-ray power diffraction (XRPD): XRPD patterns were collected on a Bruker AXS D2 diffractometer using Cu Kα radiation (30 kV, 10 mA), […], using a LynxEye detector from 5-42 °2θ.
The details of the data collection are: • Angular range: 5 to 42 °2θ • Step size: 0.024° 2θ • Collection time: 0.1 seconds per step.
Samples were run under ambient conditions and prepared as flat plate specimens using powder without grinding. Approximately 1-2 mg of the sample was lightly pressed on a silicon wafer to obtain a flat surface.
Modulated differential scanning calorimetry (mDSC): TOPEM® is a temperature modulated DSC method which differs from conventional DSC in allowing the total heat flow to be separated into reversing and non-reversing heat flow components. Such techniques help distinguish between processes or transitions that overlap or lie very close to one another. The glass transition temperature (Tg) was determined from the reversible heatflow component.
TOPEM® DSC data were collected on a Mettler DSC 3+ equipped with a 34 position auto-sampler. The instrument was calibrated for energy and temperature using certified indium. Typically, 3-5 mg of each sample, in a pin-holed aluminium pan, was heated at 2 K·min^−1 from 30° C. to 220° C. with a pulse height of 0.64 K and a pulse width 15-30 sec. A nitrogen purge at 50 mL·min^−1 was maintained over the sample. […]

For series [3] the following is noted: cited from earlier work.

With `CN(C)CCc1c[nH]c2cccc(OP(=O)(O)O)c12` [Crystalline PY starting material, 3-(2-(dimethylamino)ethyl)-1H-indol-4-yl dihydrogen phosphate], the “XRPD Results” value in series [1] was “crystalline PY (methanol solvate)^a”.

Consider `CN(C)CCc1c[nH]c2cccc(OP(=O)(O)O)c12` [Psilocybin (PY), 3-(2-(dimethylamino)ethyl)-1H-indol-4-yl dihydrogen phosphate], for which the XRPD entry in series [2] was “Amorphous”. In addition, the Tg in series [2] (mDSC) is 161 °C.

As to `CN(C)CCc1c[nH]c2cccc(OP(=O)(O)O)c12` [amorphous psilocybin], the “Tg (midpoint)” value in series [3] (reported by Greenan et al.) was 163 °C. Further, the “physical stability of the amorphous form without polymer” value in series [3] (variety of stress conditions, Greenan et al.) is “known to crystallize”.
